Publication PMC7868389, “Identification and Functional Characterization of Two Putative Pheromone Receptors in the Potato Tuber Moth, Phthorimaea operculella” (Frontiers in Physiology, 2021)

Legend:
Assay type in all cases: cell-based
[1] = molecular target: T1, PopeOR3 (Phthorimaea operculella, UniProt A0A8K1YT60); assay: two-electrode voltage clamp in Xenopus oocytes
T1 construct: full-length ORF, co-expressed with PopeOrco in Xenopus oocytes; with PopeOrco
T1 sequence (A0A8K1YT60 1-404): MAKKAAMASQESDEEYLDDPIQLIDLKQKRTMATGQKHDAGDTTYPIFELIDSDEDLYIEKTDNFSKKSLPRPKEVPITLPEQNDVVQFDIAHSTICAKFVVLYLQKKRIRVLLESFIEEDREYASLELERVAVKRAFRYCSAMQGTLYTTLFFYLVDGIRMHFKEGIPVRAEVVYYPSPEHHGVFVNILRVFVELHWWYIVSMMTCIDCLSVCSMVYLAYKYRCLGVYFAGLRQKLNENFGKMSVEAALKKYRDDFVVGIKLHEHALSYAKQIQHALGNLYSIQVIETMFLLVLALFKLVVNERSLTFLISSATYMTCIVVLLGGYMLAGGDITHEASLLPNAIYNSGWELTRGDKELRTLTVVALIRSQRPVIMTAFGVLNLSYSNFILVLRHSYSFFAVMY
T1 sequence (A0A8K1YT59 1-473 partner): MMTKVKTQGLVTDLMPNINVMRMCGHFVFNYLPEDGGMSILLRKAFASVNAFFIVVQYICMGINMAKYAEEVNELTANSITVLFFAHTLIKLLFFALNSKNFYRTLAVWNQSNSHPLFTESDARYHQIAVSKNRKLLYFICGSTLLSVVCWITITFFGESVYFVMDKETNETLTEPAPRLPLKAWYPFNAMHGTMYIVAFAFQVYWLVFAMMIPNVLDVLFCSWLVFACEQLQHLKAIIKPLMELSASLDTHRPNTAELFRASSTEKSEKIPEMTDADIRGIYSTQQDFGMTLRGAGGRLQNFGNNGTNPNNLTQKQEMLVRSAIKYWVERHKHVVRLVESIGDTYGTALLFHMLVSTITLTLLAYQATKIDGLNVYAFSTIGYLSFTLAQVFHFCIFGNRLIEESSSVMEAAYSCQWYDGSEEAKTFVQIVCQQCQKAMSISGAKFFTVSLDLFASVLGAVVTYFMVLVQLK

[2] = molecular target: T2, PopeOR1 (Phthorimaea operculella, UniProt A0A8K1YT58); assay: two-electrode voltage clamp in Xenopus oocytes
T2 construct: full-length ORF, co-expressed with PopeOrco in Xenopus oocytes; with PopeOrco
T2 sequence (A0A8K1YT58 1-435): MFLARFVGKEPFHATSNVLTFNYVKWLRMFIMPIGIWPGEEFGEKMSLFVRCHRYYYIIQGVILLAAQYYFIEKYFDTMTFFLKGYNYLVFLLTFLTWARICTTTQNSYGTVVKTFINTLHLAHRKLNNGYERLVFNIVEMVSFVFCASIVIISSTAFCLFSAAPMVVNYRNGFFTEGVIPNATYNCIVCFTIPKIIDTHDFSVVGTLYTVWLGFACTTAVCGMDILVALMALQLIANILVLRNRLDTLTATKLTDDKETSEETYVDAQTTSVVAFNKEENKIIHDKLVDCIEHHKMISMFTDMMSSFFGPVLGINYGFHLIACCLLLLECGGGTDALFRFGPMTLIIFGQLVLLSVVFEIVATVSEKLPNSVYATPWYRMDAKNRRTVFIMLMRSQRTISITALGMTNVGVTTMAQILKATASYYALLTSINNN
T2 sequence (A0A8K1YT59 1-473 partner): T1 sequence (A0A8K1YT59 1-473 partner)

[3] = molecular target: T1, PopeOR3; assay: two-electrode voltage clamp in Xenopus oocytes, weak current at […]

Compound	EC50 [1] [µM]	EC50 [2] [µM]	two-electrode voltage clamp in Xenopus oocytes, weak current at 10^-4 M [3] [nA]
CC/C=C\C/C=C\C/C=C/CCCOC(C)=O [(E, Z, Z)-4,7,10–13: OAc, tran-4, cis-7, cis-10-tridecatrienyl acetate]	89	39	
CCCCC/C=C\C/C=C/CCCOC(C)=O [(E, Z)-4,7–13: OAc, trans-4, cis-7-tridecadienyl acetate]		73	29.41 ± 6.87
